Data reported in patent US20120189558A1, “ANTI-BACTERIAL COMPOSITIONS COMPRISING EXTRACTS OF EREMOPHILA LONGIFOLIA AND METHODS FOR USE OF SAME” (priority 2009, published 2012).
In brackets after ≈: the same amount, converted by molar mass.

What was measured:
[1] = test system: Streptococcus mutans (969); assay: Plate-hole and disk diffusion assays; type: cell-based; conditions: S. mutans, 2 mg/ml positive control, mean +/- SD of three plate-hole and three disk diffusion assays
Experimental: (§1) Plate-hole diffusion assays were used to test for antibacterial activity (Palombo and Semple, 2001). A pure colony of each culture was grown in BHI broth and 200 μL were added to 15 ml of molten BHI agar. The inoculated agar was gently mixed and transferred to a sterile petri dish. Once set and dried, a sterilised core-borer (6 mm diameter) was used to make wells in the agar, and 10 μL of plant extract were added into each well. One well on each plate was filled with neat solvent as a control. Disk diffusion assays were also used to test for antibacterial activity (Pennacchio et al., 2005). 10 μL of each extract and control were placed on sterile paper disks (6 mm diameter, Oxoid) and allowed to dry for 25 minutes. 100 μL of each overnight (ON) culture was spread on BHI agar and allowed to dry for 10 minutes. Disks were transferred to the agar surface. Both plate-hole and disk diffusion assays were incubated overnight at 37° C. in candle jars and were carried out in triplicate.

[2] = test system: S. sobrinus (6715-247); assay: Plate-hole and disk diffusion assays; type: cell-based, Streptococcus sobrinus; conditions: 2 mg/ml positive control, mean +/- SD of three plate-hole and three disk diffusion assays
Experimental: as §1

[3] = test system: salivary bacteria biofilm; assay: Salivary bacteria artificial biofilm assay; type: cell-based, human; conditions: 5 mg/ml, 1 hour treatment
Experimental: (§2) Artificial biofilm assays were performed based on the method of Alviano et al. (2008). Non-stimulated saliva was collected from a healthy donor and 20 μL was placed on sterile 0.22 μm Millipore membrane disks of 13 mm diameter, previously placed over BHI agar plates. Plates were incubated for 48 hours at 37° C. After biofilm growth, the disks were collected and each disk was placed inside a bottle containing 3 ml of stem extract (5 mg/ml or 10 mg/ml in ethanol), Milli-Q distilled water or ethanol for 1 hour at 37° C. with gentle shaking. Then, the disks were briefly washed with Milli-Q distilled water to remove the plant extract and unbound bacterial cells, and the biofilm was extracted by vortexing the disks in 1 ml of BHI broth. Immediately, serial dilutions were performed and 100 μL of each dilution were spread on BHI agar. The plates were incubated in candle jars for 48 hours at 37° C. and a viable count was performed. An S. mutans artificial biofilm assay was performed by repeating the above method except that a pure ON culture of S. mutans was grown on the membrane disks instead of salivary bacteria. Both this assay and the salivary assay were performed in duplicate.

[4] = test system: S. mutans biofilm; assay: S. mutans artificial biofilm assay; type: cell-based, Streptococcus mutans; conditions: 5 mg/ml, 1 hour treatment
Experimental: as §2

[5] = test system: Burkholderia cepacia - antibiotic-susceptible clinical isolate; assay: MIC by CLSI microbroth dilution; type: cell-based; conditions: isolate GN14
Experimental: (§3) A study was carried out to determine the minimum inhibitory concentration (MIC) for Emubush extract and a comparator against a panel of isolates using Clinical and Laboratory Standards Institute (CLSI) broth methodology.
(§4) The Emubush extract was prepared by dissolving 95.2 mg in ethanol. The solvent was then evaporated off and the material re-dissolved in ethanol at room temperature.
(§5) MIC was determined by microbroth dilution following CLSI methodology. [CLSI Methods for Dilution Antimicrobial Susceptibility Tests for Bacteria That Grow Aerobically; Approved Standard-Eighth Edition. CLSI Document M07-A8. CLSI, Wayne, Pa. 19087-1898, USA, 2009].

[6] = test system: Pseudomonas aeruginosa - multi-drug resistant clinical isolate; assay: MIC by CLSI microbroth dilution; type: cell-based; conditions: isolate GN11
Experimental: as §3, §4, §5

[7] = test system: Serratia marcescens - antibiotic-susceptible clinical isolate; assay: MIC by CLSI microbroth dilution; type: cell-based; conditions: isolate GN08
Experimental: as §3, §4, §5

[8] = test system: Serratia marcescens - multi-drug resistant clinical isolate; assay: MIC by CLSI microbroth dilution; type: cell-based; conditions: isolate GN09
Experimental: as §3, §4, §5

[9] = test system: Staphylococcus aureus - methicillin-resistant clinical isolate; assay: MIC by CLSI microbroth dilution; type: cell-based; conditions: isolate GP4
Experimental: as §3, §4, §5

[10] = test system: Staphylococcus aureus ATCC 29213 - antibiotic-susceptible type strain; assay: MIC by CLSI microbroth dilution; type: cell-based; conditions: ATCC29213, isolate GP1
Experimental: as §3, §4, §5

[11] = test system: Staphylococcus aureus ATCC 43300 - methicillin-resistant type strain; assay: MIC by CLSI microbroth dilution; type: cell-based; conditions: ATCC43300, isolate GP3
Experimental: as §3, §4, §5

[12] = test system: Staphylococcus epidermidis - antibiotic susceptible clinical isolate; assay: MIC by CLSI microbroth dilution; type: cell-based; conditions: isolate GP7
Experimental: as §3, §4, §5

[13] = test system: Staphylococcus epidermidis - methicillin-resistant clinical isolate; assay: MIC by CLSI microbroth dilution; type: cell-based; conditions: isolate GP8
Experimental: as §3, §4, §5

[14] = test system: Stenotrophomonas maltophilia - antibiotic-susceptible clinical isolate; assay: MIC by CLSI microbroth dilution; type: cell-based; conditions: isolate GN12
Experimental: as §3, §4, §5

[15] = test system: Streptococcus pneumoniae - multi-drug resistant clinical isolate; assay: MIC by CLSI microbroth dilution; type: cell-based; conditions: isolate GP24
Experimental: as §3, §4, §5

[16] = test system: Streptococcus pyogenes - antibiotic-susceptible clinical isolate; assay: MIC by CLSI microbroth dilution; type: cell-based; conditions: isolate GP59
Experimental: as §3, §4, §5

[17] = test system: Stenotrophomonas maltophila - antibiotic-resistant clinical isolate; assay: MIC by CLSI microbroth dilution; type: cell-based, Stenotrophomonas maltophilia; conditions: Stenotrophomonas sp. LMG 10879; isolate GN13
Experimental: as §3, §4, §5

[18] = test system: a selection of Streptococcus species; conditions: isolated active compound; Hu et al., 2000; cited from earlier work

With `[H]/N=C(\N/C(=N/[H])NCCCCCCNC(=N)NC(=N)Nc1ccc(Cl)cc1)Nc1ccc(Cl)cc1` [Chlorhexidine, chlorhexidine] the “mean diameter of the growth inhibition zone” value [1] was 22.1 +/− 0.6 mm, the “mean diameter of the growth inhibition zone” value ([1]; listed as chlorhexidine) was 22.1+/−0.6 mm and the “mean diameter of the growth inhibition zone” value [2] was 20.5 +/− 0.6 mm. For the same compound, the “mean diameter of the growth inhibition zone” value ([2]; listed as chlorhexidine) was 20.5+/−0.6 mm, the “reduction in viable biofilm cells” value [3] was “greatest reduction in viable biofilm bacteria” and the “reduction in viable biofilm cells” value [4] was “greatest reduction in viable biofilm bacteria”.

Work on `C[C@H]1COc2c(N3CCN(C)CC3)c(F)cc3c(=O)c(C(=O)O)cn1c23` [Levofloxacin] yielded an MIC [5] of 1 µg/mL (≈ 2.77 µM), an MIC [6] of 4 µg/mL (≈ 11.1 µM) and an MIC [7] of 0.06 µg/mL (≈ 0.166 µM). For the same compound, the MIC [8] was 2 µg/mL (≈ 5.53 µM), the MIC [9] was 0.12 µg/mL (≈ 0.332 µM) and the MIC [10] was 0.25 µg/mL (≈ 0.692 µM). For the same compound, the MIC [11] was 0.12 µg/mL (≈ 0.332 µM), the MIC [12] was 0.12 µg/mL (≈ 0.332 µM) and the MIC [13] was 0.12 µg/mL (≈ 0.332 µM). It also gave an MIC [14] of 0.12 µg/mL (≈ 0.332 µM), an MIC [15] of 1 µg/mL (≈ 2.77 µM) and an MIC [16] of 0.5 µg/mL (≈ 1.38 µM). The MIC [17] was 2 µg/mL (≈ 5.53 µM).

In the case of `COc1ccc2cc3[n+](cc2c1OC)CCc1cc2c(cc1-3)OCO2` [berberine], the MIC [18] is given as 13 to 20 µg/mL.
